Laboratory results as given in patent publication US20100204224A1, “AZACYCLIC COMPOUNDS AS INHIBITORS OF SENSORY NEURONE SPECIFIC SODIUM CHANNELS” (priority 2005, published 2010).
Counter-ions that a name gives are not always drawn.

Molecular target: T1, human Nav1.8 (hNav1.8) ion channel (Homo sapiens, UniProt Q9Y5Y9)
T1 construct: expressed in transfected cells
Assay: Inhibition of human Nav1.8 stably expressed in SH-SY-5Y cells (membrane potential dye fluorescence assay)
Assay type: cell-based
Conditions: SH-SY-5Y hNav1.8 cells; FLIPR membrane potential dye; 10 μM pyrethroid, 250 nM TTX; test concentration range 100 μM-0.05 μM; read-out: hNav1.8 IC50

T1 sequence (Q9Y5Y9 whole entry): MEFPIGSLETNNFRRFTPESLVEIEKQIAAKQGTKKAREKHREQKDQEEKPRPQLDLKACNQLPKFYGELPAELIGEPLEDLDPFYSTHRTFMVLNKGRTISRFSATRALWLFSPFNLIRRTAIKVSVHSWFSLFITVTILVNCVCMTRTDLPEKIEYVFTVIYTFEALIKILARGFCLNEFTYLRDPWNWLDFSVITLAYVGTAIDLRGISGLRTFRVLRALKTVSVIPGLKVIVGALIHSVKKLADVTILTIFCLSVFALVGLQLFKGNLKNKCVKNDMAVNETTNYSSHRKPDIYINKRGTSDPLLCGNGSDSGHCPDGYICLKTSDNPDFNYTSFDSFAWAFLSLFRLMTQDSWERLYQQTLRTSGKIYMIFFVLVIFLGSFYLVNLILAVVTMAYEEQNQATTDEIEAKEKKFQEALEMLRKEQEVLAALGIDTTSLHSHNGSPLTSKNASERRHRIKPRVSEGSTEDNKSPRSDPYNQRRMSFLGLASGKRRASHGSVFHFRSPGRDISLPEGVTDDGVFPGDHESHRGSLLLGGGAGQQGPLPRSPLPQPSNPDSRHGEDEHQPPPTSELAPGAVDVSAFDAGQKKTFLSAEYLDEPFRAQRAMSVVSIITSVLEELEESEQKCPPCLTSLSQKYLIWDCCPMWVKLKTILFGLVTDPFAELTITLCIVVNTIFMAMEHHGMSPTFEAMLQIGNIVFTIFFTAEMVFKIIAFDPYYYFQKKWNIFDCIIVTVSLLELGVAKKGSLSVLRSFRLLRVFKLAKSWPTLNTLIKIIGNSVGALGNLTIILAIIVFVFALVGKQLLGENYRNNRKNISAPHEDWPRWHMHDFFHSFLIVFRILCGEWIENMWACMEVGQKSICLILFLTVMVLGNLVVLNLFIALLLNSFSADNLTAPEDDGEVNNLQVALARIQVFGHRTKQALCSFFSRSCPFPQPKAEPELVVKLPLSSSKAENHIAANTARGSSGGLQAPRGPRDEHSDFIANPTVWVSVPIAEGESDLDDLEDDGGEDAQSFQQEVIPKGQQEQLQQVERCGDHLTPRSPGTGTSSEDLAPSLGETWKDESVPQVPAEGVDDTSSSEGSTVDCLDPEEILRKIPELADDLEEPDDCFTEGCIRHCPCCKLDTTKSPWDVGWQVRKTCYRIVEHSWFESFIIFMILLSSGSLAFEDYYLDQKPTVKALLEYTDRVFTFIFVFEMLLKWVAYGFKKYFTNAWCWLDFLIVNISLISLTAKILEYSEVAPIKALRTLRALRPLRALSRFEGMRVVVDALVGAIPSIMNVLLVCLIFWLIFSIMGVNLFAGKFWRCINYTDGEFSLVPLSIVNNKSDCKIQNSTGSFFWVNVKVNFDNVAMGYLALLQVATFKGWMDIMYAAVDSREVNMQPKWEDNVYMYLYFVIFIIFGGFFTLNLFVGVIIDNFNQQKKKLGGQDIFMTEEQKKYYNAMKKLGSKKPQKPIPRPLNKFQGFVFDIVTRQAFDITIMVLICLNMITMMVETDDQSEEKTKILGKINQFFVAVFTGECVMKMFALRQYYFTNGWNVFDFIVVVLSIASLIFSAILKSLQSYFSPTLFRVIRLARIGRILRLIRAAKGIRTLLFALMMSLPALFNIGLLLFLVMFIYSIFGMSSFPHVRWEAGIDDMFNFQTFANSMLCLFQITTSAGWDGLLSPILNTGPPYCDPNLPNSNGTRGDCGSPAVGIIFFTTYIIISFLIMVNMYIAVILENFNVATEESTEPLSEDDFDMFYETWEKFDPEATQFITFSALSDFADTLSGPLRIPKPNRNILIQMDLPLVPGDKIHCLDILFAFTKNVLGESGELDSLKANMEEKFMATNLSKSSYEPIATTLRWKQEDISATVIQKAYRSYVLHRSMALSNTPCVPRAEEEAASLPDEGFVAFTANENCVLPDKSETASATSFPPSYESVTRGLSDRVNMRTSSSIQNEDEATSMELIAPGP

SMILES | IC50
CC(c1ccc(C#N)cc1)N1CC2CC1CN2C(=O)Nc1ccc(Oc2ccc(F)cc2)cc1 (stereo not drawn) [Example 90, 5-[1-(4-Cyano-phenyl)-ethyl]-2,5-diaza-bicyclo[2.2.1]heptane-2-carboxylic acid [4-(4-fluoro-phenoxy)-phenyl]-amide] | 1400 nM
CC(c1ccc(C#N)cc1)N1CC2CC1CN2C(=O)Nc1ccc(Oc2ccc(F)cc2)cc1 (stereo not drawn) [Example 91, 5-[1-(4-Cyano-phenyl)-ethyl]-2,5-diaza-bicyclo[2.2.1]heptane-2-carboxylic acid [4-(4-fluoro-phenoxy)-phenyl]-amide] | 1050 nM
O=C(Nc1ccc(Oc2ccc(F)cc2)cc1)N1CC2CC1CN2C1CCc2cc(F)ccc21 (stereo not drawn) [Example 92, 5-(5-Fluoro-indan-1-yl)-2,5-diaza-bicyclo[2.2.1]heptane-2-carboxylic acid [4-(4-fluoro-phenoxy)-phenyl]-amide] | 360 nM
O=C(Nc1ccc(Oc2ccc(F)cc2)cc1)N1CC2CC1CN2C1CCc2cc(F)ccc21 (stereo not drawn) [Example 93, 5-(5-Fluoro-indan-1-yl)-2,5-diaza-bicyclo[2.2.1]heptane-2-carboxylic acid [4-(4-fluoro-phenoxy)-phenyl]-amide] | 310 nM
O=C(Nc1ccc(C(F)(F)F)cc1)N1CC2CC1CN2C1CCc2cc(F)ccc21 (stereo not drawn) [Example 94, 5-(5-Fluoro-indan-1-yl)-2,5-diaza-bicyclo[2.2.1]heptane-2-carboxylic acid (4-trifluoromethyl-phenyl)-amide] | 1890 nM
O=C(Nc1ccc(C(F)(F)F)cc1)N1CC2CC1CN2C1CCc2cc(F)ccc21 (stereo not drawn) [Example 95, 5-(5-Fluoro-indan-1-yl)-2,5-diaza-bicyclo[2.2.1]heptane-2-carboxylic acid (4-trifluoromethyl-phenyl)-amide] | 1060 nM
CC(c1ccccc1Cl)N1CC2CC1CN2C(=O)Nc1ccc(Oc2ccc(F)cc2)cc1 (stereo not drawn) [Example 96, 5-[1-(2-Chloro-phenyl)-ethyl]-2,5-diaza-bicyclo[2.2.1]heptane-2-carboxylic acid [4-(4-fluoro-phenoxy)-phenyl]-amide methanesulfonate salt] | 370 nM
O=C(Nc1ccc(Oc2ccc(F)cc2)cc1)N1CC2CC1CN2C1CCc2ccccc2C1 (stereo not drawn) [Example 97, 5-(1,2,3,4-Tetrahydro-naphthalen-2-yl)-2,5-diaza-bicyclo[2.2.1]heptane-2-carboxylic acid [4-(4-fluoro-phenoxy)-phenyl]-amide] | 310 nM
O=C(Nc1ccc(Oc2ccc(F)cc2)cc1)N1CC2CN(Cc3ccccc3)CC2C1 (stereo not drawn) [Example 98, 5-Benzyl-hexahydro-pyrrolo[3,4-c]pyrrole-2-carboxylic acid [4-(4-fluoro-phenoxy)-phenyl]-amide] | 170 nM
O=C(Nc1ccc(C(F)(F)F)cc1)N1CC2CC1CN2C1Cc2ccccc2C1 (stereo not drawn) [Example 99, 5-Indan-2-yl-2,5-diaza-bicyclo[2.2.1]heptane-2-carboxylic acid (4-trifluoromethyl-phenyl)-amide] | 2380 nM
O=C(Nc1ccc(C(F)(F)F)cc1)N1CC2CC1CN2C1CCc2cc(F)ccc2C1 (stereo not drawn) [Example 100, 5-(6-Fluoro-1,2,3,4-tetrahydro-naphthalen-2-yl)-2,5-diaza-bicyclo[2.2.1]heptane-2-carboxylic acid (4-trifluoromethyl-phenyl)-amide] | 640 nM
O=C(Nc1ccc(Oc2ccc(F)cc2)cc1)N1CC2CC1CN2C1CCc2ccccc2C1 (stereo not drawn) [Example 101, 5-(1,2,3,4-Tetrahydro-naphthalen-2-yl)-2,5-diaza-bicyclo[2.2.1]heptane-2-carboxylic acid [4-(4-fluoro-phenoxy)-phenyl]-amide methanesulfonate salt] | 340 nM
O=C(Nc1ccc(Oc2ccc(F)cc2)cc1)N1CC2CC1CN2C1CCc2cc(F)ccc2C1 (stereo not drawn) [Example 102, 5-(6-Fluoro-1,2,3,4-tetrahydro-naphthalen-2-yl)-2,5-diaza-bicyclo[2.2.1]heptane-2-carboxylic acid [4-(4-fluoro-phenoxy)-phenyl]-amide] | 710 nM
O=C(Nc1ccc(Oc2ccc(F)cc2)cc1)N1CCC2(CCN(Cc3ccccc3)C2)C1 (stereo not drawn) [Example 103, 7-Benzyl-2,7-diaza-spiro[4.4]nonane-2-carboxylic acid [4-(4-fluoro-phenoxy)-phenyl]-amide] | 390 nM
O=C(Nc1ccc(Oc2ccc(F)cc2)cc1)N1CCC2(CCN(C3Cc4ccccc4C3)C2)C1 (stereo not drawn) [Example 104, 7-Indan-2-yl-2,7-diaza-spiro[4.4]nonane-2-carboxylic acid [4-(4-fluoro-phenoxy)-phenyl]-amide] | 430 nM
O=C(Nc1ccc(Oc2ccccc2)cc1)N1CC2CC1CN2C1Cc2ccccc2C1 (stereo not drawn) [Example 105, 5-Indan-2-yl-2,5-diaza-bicyclo[2.2.1]heptane-2-carboxylic acid (4-phenoxy-phenyl)-amide] | 200 nM
O=C(Nc1ccc(Oc2ccc(F)cc2)cc1)N1CC2CC1CN2C1Cc2ccccc2C1 (stereo not drawn) [Example 106, 5-Indan-2-yl-2,5-diaza-bicyclo[2.2.1]heptane-2-carboxylic acid [4-(4-fluoro-phenoxy)-phenyl]-amide] | 170 nM

SMILES | IC50
CC(c1ccccc1Cl)N1CC2CN(C(=O)Nc3ccc(Oc4ccc(F)cc4)cc3)CC2C1 (stereo not drawn) [Example 107, 5-[1-(2-Chloro-phenyl)-ethyl]-hexahydro-pyrrolo[3,4-c]pyrrole-2-carboxylic acid [4-(4-fluoro-phenoxy)-phenyl]-amide] | 1130 nM
CC(c1ccccc1Cl)N1CC2CC1CN2C(=O)Nc1ccc(Oc2cccc(F)c2)cc1 (stereo not drawn) [Example 108, 5-[1-(2-Chloro-phenyl)-ethyl]-2,5-diaza-bicyclo[2.2.1]heptane-2-carboxylic acid [4-(3-fluoro-phenoxy)-phenyl]-amide] | 600 nM
CC(c1ccccc1Cl)N1CC2CC1CN2C(=O)Nc1ccc(Oc2ccccc2F)cc1 (stereo not drawn) [Example 109, 5-[1-(2-Chloro-phenyl)-ethyl]-2,5-diaza-bicyclo[2.2.1]heptane-2-carboxylic acid [4-(2-fluoro-phenoxy)-phenyl]-amide] | 680 nM
CC(c1ccccc1Cl)N1CC2CC1CN2C(=O)Nc1ccc(Oc2ccc(F)cc2)c(F)c1 (stereo not drawn) [Example 110, 5-[1-(2-Chloro-phenyl)-ethyl]-2,5-diaza-bicyclo[2.2.1]heptane-2-carboxylic acid [3-fluoro-4-(4-fluoro-phenoxy)-phenyl]-amide] | 210 nM
CC(c1ccccc1Cl)N1CCC2(CCN(C(=O)Nc3ccc(Oc4ccc(F)cc4)cc3)C2)C1 (stereo not drawn) [Example 111, 7-[1-(2-Chloro-phenyl)-ethyl]-2,7-diaza-spiro[4.4]nonane-2-carboxylic acid [4-(4-fluoro-phenoxy)-phenyl]-amide] | 380 nM
O=C(Nc1ccc(Oc2ccc(F)cc2)cc1)N1CC2CN(C3Cc4ccccc4C3)CC2C1 (stereo not drawn) [Example 112, 5-Indan-2-yl-hexahydro-pyrrolo[3,4-c]pyrrole-2-carboxylic acid [4-(4-fluoro-phenoxy)-phenyl]-amide] | 300 nM
O=C(Nc1ccc(Oc2ccccc2F)cc1)N1CC2CC1CN2C1Cc2ccccc2C1 (stereo not drawn) [Example 113, 5-Indan-2-yl-2,5-diaza-bicyclo[2.2.1]heptane-2-carboxylic acid [4-(2-fluoro-phenoxy)-phenyl]-amide] | 540 nM
O=C(Nc1ccc(Oc2cccc(F)c2)cc1)N1CC2CC1CN2C1Cc2ccccc2C1 (stereo not drawn) [Example 114, 5-Indan-2-yl-2,5-diaza-bicyclo[2.2.1]heptane-2-carboxylic acid [4-(3-fluoro-phenoxy)-phenyl]-amide] | 80 nM
CC(c1ccccc1Cl)N1CC2CC1CN2C(=O)N(C)c1ccc(Oc2ccc(F)cc2)cc1 (stereo not drawn) [Example 115, 5-[1-(2-Chloro-phenyl)-ethyl]-2,5-diaza-bicyclo[2.2.1]heptane-2-carboxylic acid [4-(4-fluoro-phenoxy)-phenyl]-methyl-amide] | 1980 nM
Cc1ccc(C(C)N2CC3CC2CN3C(=O)Nc2ccc(Oc3ccc(F)cc3)cc2)c(C)c1 (stereo not drawn) [Example 116, 5-[1-(2,4-Dimethyl-phenyl)-ethyl]-2,5-diaza-bicyclo[2.2.1]heptane-2-carboxylic acid [4-(4-fluoro-phenoxy)-phenyl]-amide] | 290 nM
Cc1ccc(C(C)N2CC3CC2CN3C(=O)Nc2ccc(Oc3ccc(F)cc3)cc2)c(C)c1 (stereo not drawn) [Example 117, 5-[1-(2,4-Dimethyl-phenyl)-ethyl]-2,5-diaza-bicyclo[2.2.1]heptane-2-carboxylic acid [4-(4-fluoro-phenoxy)-phenyl]-amide] | 420 nM
CC(c1ccc(Cl)cc1Cl)N1CC2CC1CN2C(=O)Nc1ccc(Oc2ccc(F)cc2)cc1 (stereo not drawn) [Example 118, 5-[1-(2,4-Dichloro-phenyl)-ethyl]-2,5-diaza-bicyclo[2.2.1]heptane-2-carboxylic acid [4-(4-fluoro-phenoxy)-phenyl]-amide] | 17600 nM
CC(c1ccc(Cl)cc1Cl)N1CC2CC1CN2C(=O)Nc1ccc(Oc2ccc(F)cc2)cc1 (stereo not drawn) [Example 119, 5-[1-(2,4-Dichloro-phenyl)-ethyl]-2,5-diaza-bicyclo[2.2.1]heptane-2-carboxylic acid [4-(4-fluoro-phenoxy)-phenyl]-amide] | 20900 nM
CC(c1ccc(Cl)cc1Cl)N1CC2CC1CN2C(=O)Nc1ccc(C(F)(F)F)cc1 (stereo not drawn) [Example 120, 5-[1-(2,4-Dichloro-phenyl)-ethyl]-2,5-diaza-bicyclo[2.2.1]heptane-2-carboxylic acid (4-trifluoromethyl-phenyl)-amide] | 24500 nM
CC(c1ccc(Cl)cc1Cl)N1CC2CC1CN2C(=O)Nc1ccc(Oc2ccc(Cl)cc2)cc1 (stereo not drawn) [Example 121, 5-[1-(2,4-Dichloro-phenyl)-ethyl]-2,5-diaza-bicyclo[2.2.1]heptane-2-carboxylic acid [4-(4-chloro-phenoxy)-phenyl]-amide] | 22400 nM
CC(c1ccc(Cl)cc1Cl)N1CC2CC1CN2C(=O)Nc1ccc(Oc2ccc(Cl)cc2)cc1 (stereo not drawn) [Example 122, 5-[1-(2,4-Dichloro-phenyl)-ethyl]-2,5-diaza-bicyclo[2.2.1]heptane-2-carboxylic acid [4-(4-chloro-phenoxy)-phenyl]-amide] | 19200 nM
